Assay results from patent publication US8853216B2, “Hydroxylated pyrimidyl cyclopentane as AKT protein kinase inhibitor” (Array BioPharma, Inc., priority 2008, dated 2014).
pIC50: −log10 of the molar value.

Biological target: full-length human recombinant active AKT-1 (Homo sapiens, UniProt P31749)
Experiment: AKT-1 Kinase Assay (IMAP fluorescence polarization)
Type: biochemical
Settings: phosphorylation of fluorescein-labeled Crosstide peptide by AKT-1, 60 minute incubation at ambient temperature
Text: The activity of the compound described in the present invention may be determined by the following kinase assay, which measures the phosphorylation of a fluorescently-labeled peptide by full-length human recombinant active AKT-1 by fluorescent polarization using a commercially available IMAP kit.
The assay materials are obtained from an IMAP AKT Assay Bulk Kit, product #R8059, from Molecular Devices, Sunnyvale, Calif. The kit materials include an IMAP Reaction Buffer (5×). The diluted 1×IMAP Reaction Buffer contained 10 mM Tris-HCl, pH 7.2, 10 mM MgCl2, 0.1% BSA, 0.05% NaN3. DTT is routinely added to a final concentration of 1 mM immediately prior to use. Also included is IMAP Binding Buffer (5×), and IMAP Binding Reagent. The Binding Solution is prepared as a 1:400 dilution of IMAP Binding Reagent into 1×IMAP Binding Buffer.
The fluorescein-labeled AKT Substrate (Crosstide) has the sequence (Fl)-GRPRTSSFAEG. A stock solution of 20 μM is made up in 1×IMAP Reaction Buffer. […]
The assay is initiated by the addition of 2.5-μL aliquots of a solution containing 200 nM of fluorescently-labeled peptide substrate and 4 nM AKT-1. […] The reaction is then quenched by the addition of 15 μL of Binding Solution, centrifuged again and incubated for an additional 30 minutes at ambient temperature prior to reading on a Victor 1420 Multilabel HTS Counter configured to measure fluorescence polarization.

full-length human recombinant active AKT-1, sequence (P31749 whole entry): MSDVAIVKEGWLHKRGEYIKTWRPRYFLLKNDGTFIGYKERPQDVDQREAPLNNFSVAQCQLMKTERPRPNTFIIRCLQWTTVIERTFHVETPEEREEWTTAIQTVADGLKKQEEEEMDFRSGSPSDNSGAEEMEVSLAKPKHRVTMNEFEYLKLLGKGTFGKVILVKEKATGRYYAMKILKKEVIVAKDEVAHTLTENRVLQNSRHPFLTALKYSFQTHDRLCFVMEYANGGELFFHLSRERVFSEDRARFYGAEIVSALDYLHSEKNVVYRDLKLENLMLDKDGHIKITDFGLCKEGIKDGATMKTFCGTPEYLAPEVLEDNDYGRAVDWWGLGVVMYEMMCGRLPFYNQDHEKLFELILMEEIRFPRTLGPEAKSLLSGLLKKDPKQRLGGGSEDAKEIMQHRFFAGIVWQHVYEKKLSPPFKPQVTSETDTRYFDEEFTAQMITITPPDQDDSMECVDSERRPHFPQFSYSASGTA

pIC50: > 6.30
Compound: CO[C@H]1CC[C@H](NC[C@@H](C(=O)N2CCN(c3ncnc4c3[C@H](C)C[C@H]4O)CC2)c2ccc(Cl)c(F)c2)CC1 [Example 1, (S)-2-(4-chloro-3-fluorophenyl)-1-(4-((5R,7R)-7-hydroxy-5-methyl-6,7-dihydro-5H-cyclopenta[d]pyrimidin-4-yl)piperazin-1-yl)-3-((1r,4S)-4-methoxycyclohexylamino)propan-1-one]
